# Results reported in patent publication US12258332B2, “ASGPR cell surface receptor binding compounds and conjugates” (Lycia Therapeutics, Inc., priority 2021, dated 2025).
# “Also recorded” adds a separate entry of the source.
# Columns and labels:
# HepG2 cells [1] = experiment: Uptake of Alexa488-labelled target IgE bound to omalizumab (OMA) conjugates in HepG2 cells, flow cytometry; format: cell-based, human; settings: omalizumab (anti-IgE) conjugate bound to IgE-Alexa488, equal molar ratios; 1 hour
# Procedure: (§1) The omalizumab conjugates of Example 60 were bound to IgE-Alexa488 (prepared according to Example 62), as follows: equal molar ratios of omalizumab (anti-IgE) conjugate and IgE-Alexa488 were added in tissue culture media for 30 minutes at room temperature. The resulting anti-IgE conjugate:IgE antibody-Alexa488 compositions were added to HepG2 cells (100 k cells/50 ul per well, n=2), and Alexa488 fluorescence levels in the cells were measured at 1 hour by flow cytometry. As the fluorescently labelled target (IgE antibody) accumulates in cells, the fluorescence presents a way to measure total intracellular uptake by cells over time.
# as §1, with “OMA Ab” for “The omalizumab”, “example compounds I-160-I-163 and I-141” for “Example 60”, “by adapting procedure in” for “according to”, “61),” for “62),”, “OMA(anti-IgE)” for “omalizumab (anti-IgE)”
# HepG2 cells [2] = experiment: Uptake of IgG2a antibody conjugates into HepG2 cells; format: cell-based, human; settings: one hour incubation
# Procedure: The uptake of antibody conjugates of exemplary M6PR or ASGPR binding compounds was assessed in Hep G2 cells, using a method similar to that described in Example above.
# [3] = Pharmacokinetic study of OMA-linked compounds in mice, serum hIgG by ELISA; format: in vivo; settings: IV 5 mg/kg, female C57BL/6 mice, up to 168 hours
# Procedure: Pharmacokinetic (PK) studies were undertaken to determine the pharmacokinetic profile of various OMA linked example compounds (I-161-I-163).
# Protocol: Female C57BL/6 mice are dosed via IV with 5 mg/kg of OMA-example compounds, and OMA-reference. Serum samples are collected at 0.083, 0.25, 0.5, 1, 2, 4, 8, 24, 48, 72, and 168 hours after dosing with 3 animals per timepoint.
# Serum hIgG concentrations were measured by ELISA.
# IgE = experiment: Pharmacodynamic study: clearance of target IgE by OMA conjugates in mice, serum hIgE by ELISA; format: in vivo, C57BL/6 mice; settings: 0.1 mg/kg of OMA conjugate, IgE 1 mg/kg
# Procedure: Protocol: Female C57BL/6 mice were IV dosed 1 mg/kg of IgE followed by 0.1, 0.3, 1, or 3 mg/kg of OMA-I-163 16 hours later. Serum samples were collected at 0 (pre-bleed), 1, 4, and 24 hours after OMA-I-163 dose with 3 animals per timepoint.
# Serum hIgE and hIgG concentrations were measured by ELISA.
# Protocol: Female C57BL/6 mice were IV dosed 1 mg/kg of IgE followed by 0.1 mg/kg of OMA-I-163, OMA-I-162, OMA-I-161, and OMA-I-160 16 hours later. Serum samples were collected at 0 (pre-bleed), 1, 4, and 24 hours after LYTAC dose with 3 animals per timepoint.
# Serum concentrations were measured by Elisa.
SMILES,relative uptake activity of Alexa488 labeled-target IgE in HepG2 cells (HepG2 cells [1]),"HepG2 cellular uptake of antibody conjugate (cell fluorescence, MFI) (HepG2 cells [2])",PK profile / clearance of OMA-linked compound (serum hIgG) [3],IgE clearance efficiency compared to reference OMA-I-163 (IgE)
"CC(=O)N[C@@H]1[C@@H](O)[C@@H](O)[C@@H](CO)O[C@H]1SCCC(=O)NCCCCCNC(=O)CCOCC(COCCC(=O)NCCCCCNC(=O)CCS[C@@H]1O[C@H](CO)[C@H](O)[C@H](O)[C@H]1NC(C)=O)(COCCC(=O)NCCCCCNC(=O)CCS[C@@H]1O[C@H](CO)[C@H](O)[C@H](O)[C@H]1NC(C)=O)NC(=O)CCCCCCCCCCC(=O)Oc1c(F)c(F)c(F)c(F)c1F [Compound I-141, perfluorophenyl 1-(((2S,3R,4R,5R,6R)-3-acetamido-4,5-dihydroxy-6-(hydroxymethyl)tetrahydro-2H-pyran-2-yl)thio)-16,16-bis((3-((5-(3-(((2S,3R,4R,5R,6R)-3-acetamido-4,5-dihydroxy-6-(hydroxymethyl)tetrahydro-2H-pyran-2-yl)thio)propanamido)pentyl)amino)-3-oxopropoxy)methyl)-3,11,18-trioxo-14-oxa-4,10,17-triazanonacosan-29-oate]",superior uptake to that of the 0-glycoside,–,–,–
CC(=O)N[C@H]1[C@H](OCCCCC(=O)NCCCNC(=O)CCOCC(COCCC(=O)NCCCNC(=O)CCCCO[C@@H]2O[C@H](CO)[C@H](O)[C@H](O)[C@H]2NC(C)=O)(COCCC(=O)NCCCNC(=O)CCCCO[C@@H]2O[C@H](CO)[C@H](O)[C@H](O)[C@H]2NC(C)=O)NC(=O)CCCCCCCCCCCN2C(=O)C=CC2=O)O[C@H](CO)[C@H](O)[C@@H]1O [Compound 1210],–,comparable HepG2 cellular uptake,–,–
"CC(=O)N[C@@H]1[C@@H](O)[C@@H](O)[C@@H](CO)O[C@H]1n1cc(COCCOCCOCCNC(=O)CCC(CCC(=O)NCCOCCOCCOCc2cn([C@@H]3O[C@H](CO)[C@H](O)[C@H](O)[C@H]3NC(C)=O)nn2)(CCC(=O)NCCOCCOCCOCc2cn([C@@H]3O[C@H](CO)[C@H](O)[C@H](O)[C@H]3NC(C)=O)nn2)NC(=O)CCCCCCCCCCC(=O)Oc2c(F)c(F)c(F)c(F)c2F)nn1 [Compound I-143, perfluorophenyl 1-(1-((2R,3R,4R,5R,6R)-3-acetamido-4,5-dihydroxy-6-(hydroxymethyl)tetrahydro-2H-pyran-2-yl)-1H-1,2,3-triazol-4-yl)-15,15-bis(1-(1-((2R,3R,4R,5R,6R)-3-acetamido-4,5-dihydroxy-6-(hydroxymethyl)tetrahydro-2H-pyran-2-yl)-1H-1,2,3-triazol-4-yl)-12-oxo-2,5,8-trioxa-11-azatetradecan-14-yl)-12,17-dioxo-2,5,8-trioxa-11,16-diazaoctacosan-28-oate]",superior activity to the reference conjugate,–,–,–
"O=C(CCOCCOCCOCCOCCn1cc(CCCCNC(=S)Nc2ccc(O[C@H]3O[C@H](CCP(=O)(O)O)[C@@H](O)[C@H](O)[C@@H]3O)cc2)nn1)Oc1c(F)c(F)c(F)c(F)c1F [Compound 520, reference compound]",–,comparable HepG2 cellular uptake; also recorded: comparable robust uptake into HepG2 cells,–,–
CC(=O)N[C@@H]1[C@@H](O)[C@@H](O)[C@@H](CO)O[C@H]1SCCC(=O)NCCCCCNC(=O)CCOCC(COCCC(=O)NCCCCCNC(=O)CCS[C@@H]1O[C@H](CO)[C@H](O)[C@H](O)[C@H]1NC(C)=O)(COCCC(=O)NCCCCCNC(=O)CCS[C@@H]1O[C@H](CO)[C@H](O)[C@H](O)[C@H]1NC(C)=O)NC(=O)CCCCCCCCCCC(=O)NCCN1C(=O)C=CC1=O [Compound I-162],most active anomeric position variants,–,distinct PK profiles from reference compound I-163,clear IgE more efficiently than the reference compound
CC(=O)N[C@@H]1[C@@H](O)[C@@H](O)[C@@H](CO)C[C@H]1n1cc(COCCOCCOCCNC(=O)CCC(CCC(=O)NCCOCCOCCOCc2cn([C@@H]3O[C@H](CO)[C@H](O)[C@H](O)[C@H]3NC(C)=O)nn2)(CCC(=O)NCCOCCOCCOCc2cn([C@@H]3O[C@H](CO)[C@H](O)[C@H](O)[C@H]3NC(C)=O)nn2)NC(=O)CCCCCCCCCCC(=O)NCCN2C(=O)C=CC2=O)nn1 [Compound I-161],essentially identical activity to the reference conjugate; also recorded: most active anomeric position variants,–,distinct PK profiles from reference compound I-163,clear IgE more efficiently than the reference compound
CC(=O)N[C@H]1[C@H](OCCCCC(=O)NCCCNC(=O)CCOCC(COCCC(=O)NCCCNC(=O)CCCCO[C@@H]2O[C@H](CO)[C@H](O)[C@H](O)[C@H]2NC(C)=O)(COCCC(=O)NCCCNC(=O)CCCCO[C@@H]2O[C@H](CO)[C@H](O)[C@H](O)[C@H]2NC(C)=O)NC(=O)CCCCCCCCCCC(=O)Oc2c(F)c(F)c(F)c(F)c2F)O[C@H](CO)[C@H](O)[C@@H]1O [Compound 1209],–,comparable HepG2 cellular uptake,–,–
CC(=O)N[C@H]1[C@H](OCCCCC(=O)NCCCNC(=O)CCOCC(COCCC(=O)NCCCNC(=O)CCCCO[C@@H]2O[C@H](CO)[C@H](O)[C@H](O)[C@H]2NC(C)=O)(COCCC(=O)NCCCNC(=O)CCCCO[C@@H]2O[C@H](CO)[C@H](O)[C@H](O)[C@H]2NC(C)=O)NC(=O)CCOCCOCCOCCOCCC(=O)Oc2c(F)c(F)c(F)c(F)c2F)O[C@H](CO)[C@H](O)[C@@H]1O [Compound I-145],superior uptake to conjugates having a valency of 2 or 1,–,–,–
"CC(=O)N[C@@H]1[C@@H](O)[C@@H](O)[C@@H](CO)O[C@H]1Cc1cn(CCOCCOCCOCCNC(=O)CCC(CCC(=O)NCCOCCOCCOCCn2cc(C[C@@H]3O[C@H](CO)[C@H](O)[C@H](O)[C@H]3NC(C)=O)nn2)(CCC(=O)NCCOCCOCCOCCn2cc(C[C@@H]3O[C@H](CO)[C@H](O)[C@H](O)[C@H]3NC(C)=O)nn2)NC(=O)CCCCCCCCCCC(=O)Oc2c(F)c(F)c(F)c(F)c2F)nn1 [Compound I-140, perfluorophenyl 1-(4-(((2S,3R,4R,5R,6R)-3-acetamido-4,5-dihydroxy-6-(hydroxymethyl)tetrahydro-2H-pyran-2-yl)methyl)-1H-1,2,3-triazol-1-yl)-16,16-bis(1-(4-(((2S,3R,4R,5R,6R)-3-acetamido-4,5-dihydroxy-6-(hydroxymethyl)tetrahydro-2H-pyran-2-yl)methyl)-1H-1,2,3-triazol-1-yl)-13-oxo-3,6,9-trioxa-12-azapentadecan-15-yl)-13,18-dioxo-3,6,9-trioxa-12,17-diazanonacosan-29-oate]",comparable activity to the conjugate having the 0-glycoside,–,–,–
CC(=O)N[C@@H]1[C@@H](O)[C@@H](O)[C@@H](CO)O[C@H]1Cc1cn(CCOCCOCCOCCNC(=O)CCC(CCC(=O)NCCOCCOCCOCCn2cc(C[C@@H]3O[C@H](CO)[C@H](O)[C@H](O)[C@H]3NC(C)=O)nn2)(CCC(=O)NCCOCCOCCOCCn2cc(C[C@@H]3O[C@H](CO)[C@H](O)[C@H](O)[C@H]3NC(C)=O)nn2)NC(=O)CCCCCCCCCCC(=O)NCCN2C(=O)C=CC2=O)nn1 [Compound I-160],most active anomeric position variants,–,distinct PK profiles from reference compound I-163,clear IgE more efficiently than the reference compound
